Legend:
Assay in all cases: KINOMEscan competition binding
[1] = molecular target: ABL1(F317I)-nonphosphorylated (Homo sapiens, UniProt P00519, F317I); conditions: read-out: Percent Control
Procedure: (§1) KINOMEscan™ is based on a competition binding assay that quantitatively measures the ability of a compound to compete with an immobilized, active-site directed ligand (Fabian et al. (2005) Nat. Biotechnol. 23, 329; Karaman et al. (2008) Nat. Biotechnol. 26, 127). The compound was screened at 10 μM, and results for primary screen binding interactions are reported as ‘% Ctrl’, where lower numbers indicate stronger hits. The results for kinases targets with a % Ctrl less than 30 can be seen in Table 2.

[2] = molecular target: T1, ABL1(H396P)-nonphosphorylated (Homo sapiens, UniProt P00519, H396P); conditions: read-out: Percent Control
T1 construct: purchased KINOMEscan (panel service)
Procedure: as §1

[3] = molecular target: ABL1(M351T)-phosphorylated (Homo sapiens, UniProt P00519, M351T); conditions: read-out: Percent Control
Procedure: as §1

[4] = molecular target: ABL1(T315I)-phosphorylated (Homo sapiens, UniProt P00519, T315I); conditions: read-out: Percent Control
Procedure: as §1

[5] = molecular target: T2, AURKC (Homo sapiens, UniProt Q9UQB9); conditions: read-out: Percent Control
T2 construct: purchased KINOMEscan (screening service)
Procedure: as §1

[6] = molecular target: BRAF (Homo sapiens, UniProt P15056); conditions: read-out: Percent Control
Procedure: as §1

[7] = molecular target: DDR1 (Homo sapiens, UniProt Q08345); conditions: read-out: Percent Control
Procedure: as §1

[8] = molecular target: T3, DRAK2 (Homo sapiens, UniProt O94768); conditions: DRAK2 (Entrez STK17B), read-out: Percent Control
T3 construct: purchased KINOMEscan (screening service)
Procedure: as §1

[9] = molecular target: EGFR(L747-E749del, A750P) (Homo sapiens, UniProt P00533, A750P/DEL747-749); conditions: read-out: Percent Control
Procedure: as §1

[10] = molecular target: EGFR(L747-S752del, P753S) (Homo sapiens, UniProt P00533, DEL747-752/P753S); conditions: read-out: Percent Control
Procedure: as §1

[11] = molecular target: T4, EGFR(L858R, T790M) (Homo sapiens, UniProt P00533, L858R/T790M); conditions: read-out: Percent Control
T4 construct: purchased KINOMEscan (screening platform)
Procedure: as §1

[12] = molecular target: EPHA1 (Homo sapiens, UniProt P21709); conditions: read-out: Percent Control
Procedure: as §1

[13] = molecular target: T5, EPHA3 (Homo sapiens, UniProt P29320); conditions: read-out: Percent Control
T5 construct: purchased KINOMEscan (screening service)
Procedure: as §1

[14] = molecular target: EPHB3 (Homo sapiens, UniProt P54753); conditions: read-out: Percent Control
Procedure: as §1

[15] = molecular target: FAK (Homo sapiens, UniProt Q05397); conditions: FAK (Entrez PTK2), read-out: Percent Control
Procedure: as §1

[16] = molecular target: FGFR1 (Homo sapiens, UniProt P11362); conditions: read-out: Percent Control
Procedure: as §1

[17] = molecular target: FGFR2 (Homo sapiens, UniProt P21802); conditions: read-out: Percent Control
Procedure: as §1

[18] = molecular target: FLT3(D835H) (Homo sapiens, UniProt P36888, D835H); conditions: read-out: Percent Control
Procedure: as §1

[19] = molecular target: T6, FLT3(D835Y) (Homo sapiens, UniProt P36888, D835Y); conditions: read-out: Percent Control
T6 construct: purchased KINOMEscan (screening service)
Procedure: as §1

[20] = molecular target: FLT4 (Homo sapiens, UniProt P35916); conditions: read-out: Percent Control
Procedure: as §1

[21] = molecular target: FRK (Homo sapiens, UniProt P42685); conditions: read-out: Percent Control
Procedure: as §1

[22] = molecular target: T7, JNK1 (Homo sapiens, UniProt P45983); conditions: JNK1 (Entrez MAPK8), read-out: Percent Control
T7 construct: purchased KINOMEscan (screening platform)
Procedure: as §1

[23] = molecular target: KIT(A829P) (Homo sapiens, UniProt P10721, A829P); conditions: read-out: Percent Control
Procedure: as §1

[24] = molecular target: T8, KIT(D816V) (Homo sapiens, UniProt P10721, D816V); conditions: read-out: Percent Control
T8 construct: purchased KINOMEscan (panel service)
Procedure: as §1

[25] = molecular target: KIT(V559D, V654A) (Homo sapiens, UniProt P10721, V559D/V654A); conditions: read-out: Percent Control
Procedure: as §1

[26] = molecular target: MLK1 (Homo sapiens, UniProt P80192); conditions: MLK1 (Entrez MAP3K9), read-out: Percent Control
Procedure: as §1

[27] = molecular target: PFCDPK1(P. falciparum) (Plasmodium falciparum, UniProt P62344); conditions: PFCDPK1(P. falciparum) (Entrez CDPK1), read-out: Percent Control
Procedure: as §1

[28] = molecular target: T9, RAF1 (Homo sapiens, UniProt P04049); conditions: read-out: Percent Control
T9 construct: purchased KINOMEscan (screening service)
Procedure: as §1

[29] = molecular target: T10, RET(V804L) (Homo sapiens, UniProt P07949, V804L); conditions: read-out: Percent Control
T10 construct: purchased KINOMEscan (panel service)
Procedure: as §1

[30] = molecular target: T11, RET(V804M) (Homo sapiens, UniProt P07949, V804M); conditions: read-out: Percent Control
T11 construct: purchased KINOMEscan (panel service)
Procedure: as §1

[31] = molecular target: T12, ROS1 (Homo sapiens, UniProt P08922); conditions: read-out: Percent Control
T12 construct: purchased KINOMEscan (screening service)
Procedure: as §1

[32] = molecular target: T13, SIK2 (Homo sapiens, UniProt Q9H0K1); conditions: read-out: Percent Control
T13 construct: purchased KINOMEscan (screening service)
Procedure: as §1

[33] = molecular target: T14, TAK1 (Homo sapiens, UniProt O43318); conditions: TAK1 (Entrez MAP3K7), read-out: Percent Control
T14 construct: purchased KINOMEscan (panel service)
Procedure: as §1

[34] = molecular target: T15, TXK (Homo sapiens, UniProt P42681); conditions: read-out: Percent Control
T15 construct: purchased KINOMEscan (panel service)
Procedure: as §1

[35] = molecular target: T16, WNK3 (Homo sapiens, UniProt Q9BYP7); conditions: read-out: Percent Control
T16 construct: purchased KINOMEscan (screening service)
Procedure: as §1

Sequence of BRAF (P15056 whole entry): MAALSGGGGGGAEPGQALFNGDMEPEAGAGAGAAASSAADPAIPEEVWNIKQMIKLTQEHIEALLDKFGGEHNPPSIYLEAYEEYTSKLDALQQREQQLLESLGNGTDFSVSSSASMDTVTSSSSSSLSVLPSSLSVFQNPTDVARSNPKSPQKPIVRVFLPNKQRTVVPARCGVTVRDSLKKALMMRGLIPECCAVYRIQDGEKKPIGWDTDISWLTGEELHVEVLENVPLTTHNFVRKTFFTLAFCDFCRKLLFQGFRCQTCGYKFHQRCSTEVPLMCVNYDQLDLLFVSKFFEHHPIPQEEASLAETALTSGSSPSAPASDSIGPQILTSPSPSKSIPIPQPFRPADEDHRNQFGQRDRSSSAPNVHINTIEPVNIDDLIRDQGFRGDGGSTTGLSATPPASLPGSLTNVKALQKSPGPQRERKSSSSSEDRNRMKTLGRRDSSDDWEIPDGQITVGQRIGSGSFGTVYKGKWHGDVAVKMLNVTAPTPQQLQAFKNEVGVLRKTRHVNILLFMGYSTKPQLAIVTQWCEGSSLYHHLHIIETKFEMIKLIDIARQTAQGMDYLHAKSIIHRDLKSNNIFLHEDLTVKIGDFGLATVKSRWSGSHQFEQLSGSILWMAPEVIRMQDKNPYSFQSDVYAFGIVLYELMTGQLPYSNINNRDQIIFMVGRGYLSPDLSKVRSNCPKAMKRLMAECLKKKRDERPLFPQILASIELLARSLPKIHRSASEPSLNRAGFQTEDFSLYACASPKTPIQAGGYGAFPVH
T10 sequence (P07949 29-1114 V804L): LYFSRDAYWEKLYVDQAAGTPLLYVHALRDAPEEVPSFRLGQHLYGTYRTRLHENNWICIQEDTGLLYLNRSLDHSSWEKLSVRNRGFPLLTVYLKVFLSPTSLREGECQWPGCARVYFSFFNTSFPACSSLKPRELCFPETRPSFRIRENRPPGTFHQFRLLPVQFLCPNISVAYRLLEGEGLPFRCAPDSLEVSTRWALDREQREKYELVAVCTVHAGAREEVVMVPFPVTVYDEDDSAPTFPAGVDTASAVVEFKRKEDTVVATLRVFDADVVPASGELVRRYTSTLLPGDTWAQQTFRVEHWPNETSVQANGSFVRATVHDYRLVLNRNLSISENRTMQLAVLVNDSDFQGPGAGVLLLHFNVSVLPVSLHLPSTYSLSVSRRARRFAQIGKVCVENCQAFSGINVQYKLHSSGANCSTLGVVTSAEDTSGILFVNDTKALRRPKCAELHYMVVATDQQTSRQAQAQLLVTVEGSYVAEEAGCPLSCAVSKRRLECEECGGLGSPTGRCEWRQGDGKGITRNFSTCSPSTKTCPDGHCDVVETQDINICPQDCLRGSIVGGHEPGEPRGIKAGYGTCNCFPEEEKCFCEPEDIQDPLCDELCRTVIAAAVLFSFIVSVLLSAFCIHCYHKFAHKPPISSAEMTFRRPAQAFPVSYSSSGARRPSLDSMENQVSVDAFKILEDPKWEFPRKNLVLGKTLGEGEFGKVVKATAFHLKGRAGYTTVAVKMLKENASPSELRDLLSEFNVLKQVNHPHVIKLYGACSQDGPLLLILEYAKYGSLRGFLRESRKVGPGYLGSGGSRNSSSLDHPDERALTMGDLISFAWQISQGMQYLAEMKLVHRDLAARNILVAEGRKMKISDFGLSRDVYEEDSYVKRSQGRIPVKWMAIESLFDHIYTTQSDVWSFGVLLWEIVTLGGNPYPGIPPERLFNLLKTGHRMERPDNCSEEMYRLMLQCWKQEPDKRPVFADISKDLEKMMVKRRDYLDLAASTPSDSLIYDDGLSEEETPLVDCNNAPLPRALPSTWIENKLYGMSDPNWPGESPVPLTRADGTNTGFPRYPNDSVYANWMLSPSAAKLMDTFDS
Sequence of KIT(V559D, V654A) (P10721 26-976 V559D/V654A): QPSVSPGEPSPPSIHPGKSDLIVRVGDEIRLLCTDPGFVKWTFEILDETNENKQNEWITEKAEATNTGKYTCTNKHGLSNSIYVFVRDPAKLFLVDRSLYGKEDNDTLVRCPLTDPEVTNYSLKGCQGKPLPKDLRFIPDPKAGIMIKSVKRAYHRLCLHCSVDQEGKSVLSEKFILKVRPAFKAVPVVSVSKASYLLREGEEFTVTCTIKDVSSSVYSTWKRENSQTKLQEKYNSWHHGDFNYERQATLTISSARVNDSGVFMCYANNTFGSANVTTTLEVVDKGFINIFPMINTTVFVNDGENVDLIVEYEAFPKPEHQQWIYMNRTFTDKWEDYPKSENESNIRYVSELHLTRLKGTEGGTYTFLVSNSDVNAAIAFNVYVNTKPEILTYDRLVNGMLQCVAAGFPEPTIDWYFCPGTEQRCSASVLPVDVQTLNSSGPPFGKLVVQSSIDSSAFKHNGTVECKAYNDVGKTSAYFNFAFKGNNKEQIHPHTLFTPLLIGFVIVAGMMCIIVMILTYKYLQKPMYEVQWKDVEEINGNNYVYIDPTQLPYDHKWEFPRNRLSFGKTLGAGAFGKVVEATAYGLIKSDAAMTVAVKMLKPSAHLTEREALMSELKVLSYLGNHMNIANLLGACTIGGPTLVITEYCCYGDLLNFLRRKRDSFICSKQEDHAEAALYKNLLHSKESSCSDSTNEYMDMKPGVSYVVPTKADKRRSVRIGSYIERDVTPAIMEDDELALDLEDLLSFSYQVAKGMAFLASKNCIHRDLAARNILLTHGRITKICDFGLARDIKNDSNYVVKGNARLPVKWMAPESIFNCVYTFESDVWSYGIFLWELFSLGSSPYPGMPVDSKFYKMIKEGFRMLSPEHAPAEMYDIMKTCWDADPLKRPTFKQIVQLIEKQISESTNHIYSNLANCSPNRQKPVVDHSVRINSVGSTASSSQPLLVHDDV
T8 sequence (P10721 26-976 D816V): as the sequence (P10721 26-976 V559D/V654A) above, with D534V, A629V, D791V counted along it
Sequence of PFCDPK1(P. falciparum) (P62344 whole entry): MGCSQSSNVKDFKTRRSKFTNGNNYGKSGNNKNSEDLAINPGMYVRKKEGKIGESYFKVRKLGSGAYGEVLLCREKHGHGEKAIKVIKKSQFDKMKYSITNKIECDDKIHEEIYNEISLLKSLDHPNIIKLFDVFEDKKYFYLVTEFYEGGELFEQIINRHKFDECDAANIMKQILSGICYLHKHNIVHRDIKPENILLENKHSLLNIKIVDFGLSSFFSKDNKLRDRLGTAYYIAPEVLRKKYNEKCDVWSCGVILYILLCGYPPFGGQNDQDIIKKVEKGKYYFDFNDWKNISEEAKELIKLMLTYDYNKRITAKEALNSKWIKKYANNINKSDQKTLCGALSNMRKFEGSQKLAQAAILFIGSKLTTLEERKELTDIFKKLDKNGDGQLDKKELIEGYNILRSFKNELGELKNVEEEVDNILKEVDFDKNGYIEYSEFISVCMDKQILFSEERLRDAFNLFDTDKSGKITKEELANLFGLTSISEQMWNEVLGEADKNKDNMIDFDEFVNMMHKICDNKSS
T11 sequence (P07949 29-1114 V804M): as the sequence (P07949 29-1114 V804L) above, with L776M counted along it
Sequence of MLK1 (P80192 whole entry): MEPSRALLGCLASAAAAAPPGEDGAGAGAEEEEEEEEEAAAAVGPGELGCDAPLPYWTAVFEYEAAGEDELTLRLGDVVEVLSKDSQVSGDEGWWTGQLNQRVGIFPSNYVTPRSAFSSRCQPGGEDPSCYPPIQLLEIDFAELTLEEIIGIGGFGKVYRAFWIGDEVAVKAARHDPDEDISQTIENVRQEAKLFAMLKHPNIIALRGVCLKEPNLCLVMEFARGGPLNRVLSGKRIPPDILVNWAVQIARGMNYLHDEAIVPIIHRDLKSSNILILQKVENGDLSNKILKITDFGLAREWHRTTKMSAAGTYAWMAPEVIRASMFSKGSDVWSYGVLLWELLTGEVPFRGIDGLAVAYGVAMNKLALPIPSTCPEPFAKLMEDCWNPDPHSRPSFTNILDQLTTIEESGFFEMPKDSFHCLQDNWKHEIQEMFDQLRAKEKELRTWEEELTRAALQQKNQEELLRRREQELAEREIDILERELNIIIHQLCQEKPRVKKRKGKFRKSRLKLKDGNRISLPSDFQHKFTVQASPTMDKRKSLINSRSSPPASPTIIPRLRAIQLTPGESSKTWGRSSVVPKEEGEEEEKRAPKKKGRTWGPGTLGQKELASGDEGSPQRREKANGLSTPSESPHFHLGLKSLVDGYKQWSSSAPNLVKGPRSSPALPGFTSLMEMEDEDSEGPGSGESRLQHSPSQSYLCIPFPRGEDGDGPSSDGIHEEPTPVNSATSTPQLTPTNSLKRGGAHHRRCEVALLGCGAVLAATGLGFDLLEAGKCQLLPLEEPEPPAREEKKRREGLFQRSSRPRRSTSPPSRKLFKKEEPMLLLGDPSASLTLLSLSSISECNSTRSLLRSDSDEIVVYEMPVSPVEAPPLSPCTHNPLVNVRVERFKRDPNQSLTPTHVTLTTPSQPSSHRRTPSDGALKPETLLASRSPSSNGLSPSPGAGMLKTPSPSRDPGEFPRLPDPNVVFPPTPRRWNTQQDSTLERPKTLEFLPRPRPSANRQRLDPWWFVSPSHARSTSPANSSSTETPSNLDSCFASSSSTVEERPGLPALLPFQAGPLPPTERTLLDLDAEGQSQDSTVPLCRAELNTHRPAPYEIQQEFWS
T7 sequence (P45983 whole entry): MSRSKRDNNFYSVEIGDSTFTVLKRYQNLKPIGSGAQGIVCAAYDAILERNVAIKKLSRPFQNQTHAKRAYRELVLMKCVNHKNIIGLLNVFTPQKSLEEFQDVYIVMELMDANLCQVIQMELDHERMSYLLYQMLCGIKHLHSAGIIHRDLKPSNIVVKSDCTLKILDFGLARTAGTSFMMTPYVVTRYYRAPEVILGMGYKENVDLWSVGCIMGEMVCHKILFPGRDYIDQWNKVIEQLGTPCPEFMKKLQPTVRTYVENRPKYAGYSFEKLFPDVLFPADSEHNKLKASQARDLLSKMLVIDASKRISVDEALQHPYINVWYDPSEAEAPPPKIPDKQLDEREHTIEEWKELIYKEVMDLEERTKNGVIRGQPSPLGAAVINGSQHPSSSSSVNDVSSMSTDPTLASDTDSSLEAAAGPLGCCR
Sequence of KIT(A829P) (P10721 26-976 A829P): as the sequence (P10721 26-976 V559D/V654A) above, with D534V, A629V, A804P counted along it

Structure (SMILES): Cc1ccc(Nc2ncc3c(n2)N(C)CN(c2cc(NC(=O)c4cccc(C(F)(F)F)c4)ccc2C)C3)cn1 [IA-9, N-(4-methyl-3-(1-methyl-7-((6-methylpyridin-3-yl)amino)-1,4-dihydropyrimido[4,5-d]pyrimidin-3(2H)-yl)phenyl)-3-(trifluoromethyl)benzamide]
- remaining binding at 10 µM [1]: 0%
- remaining binding at 10 µM [2]: 0.05%
- remaining binding at 10 µM [3]: 1.2%
- remaining binding at 10 µM [4]: 4.1%
- remaining binding at 10 µM [5]: 6.9%
- remaining binding at 10 µM [6]: 0.5%
- remaining binding at 10 µM [7]: 1.1%
- remaining binding at 10 µM [8]: 17%
- remaining binding at 10 µM [9]: 0%
- remaining binding at 10 µM [10]: 0%
- remaining binding at 10 µM [11]: 24%
- remaining binding at 10 µM [12]: 0.35%
- remaining binding at 10 µM [13]: 11%
- remaining binding at 10 µM [14]: 0%
- remaining binding at 10 µM [15]: 6.6%
- remaining binding at 10 µM [16]: 1.3%
- remaining binding at 10 µM [17]: 2.7%
- remaining binding at 10 µM [18]: 3.2%
- remaining binding at 10 µM [19]: 9%
- remaining binding at 10 µM [20]: 0%
- remaining binding at 10 µM [21]: 0%
- remaining binding at 10 µM [22]: 28%
- remaining binding at 10 µM [23]: 3.6%
- remaining binding at 10 µM [24]: 0.05%
- remaining binding at 10 µM [25]: 0.35%
- remaining binding at 10 µM [26]: 5.7%
- remaining binding at 10 µM [27]: 0.35%
- remaining binding at 10 µM [28]: 12%
- remaining binding at 10 µM [29]: 0%
- remaining binding at 10 µM [30]: 0%
- remaining binding at 10 µM [31]: 17%
- remaining binding at 10 µM [32]: 21%
- remaining binding at 10 µM [33]: 0.1%
- remaining binding at 10 µM [34]: 0%
- remaining binding at 10 µM [35]: 18%
